Measured values as given in patent publication US9956181B2, “Composition of nanoformulated lycopene and method of using the composition” (priority 2015, dated 2018).

What was measured:
[1] = test system: ovariectomized (OVX) rats; test: OVX rat study: biochemical bone turnover markers; type: in vivo, Wistar rats
Description: (§1) A total of 264 Wistar female rats, ˜6 months old, were supplied by the Animal House at King Fahd Medical Research Center (KFMRC), KAU. Rats were housed in individual cages and maintained at 22° C. with a 12-h light/dark cycle. During the study period, rats were given standard rodent chow diet ad libitum (commercial rat cubes containing approximately 18% protein, 3% fat, 77% carbohydrate, and 2% of an inorganic-salt mixture with a vitamin supplement by weight, supplied by Grain Silos and Flour Mills Organization, Jeddah, Saudi Arabia) and water until the onset of intervention. Prior to surgery, rats were anesthetized with ketamine [(10% ketamine hydrochloride (80 mg/kg body weight), Cayman Chemical, Michigan, USA] and xylazine [(2% xylazine hydrochloride, 10 mg/kg body weight), Sigma-Aldrich Co., St. Louis, USA]. A single longitudinal skin incision was made on the dorsal midline at the level of the kidneys and both ovaries were ligated and removed to produce an ovariectomy in all OVX group animals. A SHAM-operated group, acting as a negative control for the effect of ovariectomy on bone parameters, underwent bilateral laparotomy, during which the ovaries were exposed but remained intact. […] The lycopene-supplemented groups were given lycopene (15, 30 and 45 mg/kg body weight per day) dissolved in corn oil by daily intra-gastric administration for the experimental period of 12 weeks. The SHAM, OVX and ALN control groups were given the same volume of corn oil without lycopene treatment. […] A 12-week randomized placebo-controlled study in order to examine the protective effects of lycopene supplementation on bone mass and fragility in OVX rats was concluded. Prior to surgery, body weight and bone mineral density (BMD) were obtained for all animals. Rats were randomized using a computer-generated randomization code into one of six groups: (1) sham-operated (SHAM; n=44); (2) ovariectomized control (OVX; n=44); (3) OVX lycopene-supplemented (15 mg/kg body weight per day) (n=44); (4) OVX lycopene-supplemented (30 mg/kg body weight per day) (n=44); (5) OVX lycopene-supplemented (45 mg/kg body weight per day) (n=44) and (6) OVX alendronate-treated (ALN) [2.0 μg/kg body weight per day subcutaneously (sc)] (n=44). Alendronate is an anti-resorptive agent for the treatment of osteoporosis and was used as a positive therapy control. […] All OVX groups were pair-fed with the SHAM group throughout the study to avoid the possible effects of ovariectomy-induced over-consumption and subsequent excessive weight gain. Treatment started 1 week after the surgery: this period of rest allowed the rats to recover from the stress associated with the surgery. […] Peripheral Quantitative CT (pQCT) scans were made of the proximal tibia metaphysis and the diaphysis. […]

[2] = test system: ovariectomized (OVX) rats; test: OVX rat study: ex vivo μCT analysis of tibial metaphysis and femur diaphysis; type: in vivo, Wistar rats
Description: (§2) A total of 264 Wistar female rats, ˜6 months old, were supplied by the Animal House at King Fahd Medical Research Center (KFMRC), KAU. Rats were housed in individual cages and maintained at 22° C. with a 12-h light/dark cycle. During the study period, rats were given standard rodent chow diet ad libitum (commercial rat cubes containing approximately 18% protein, 3% fat, 77% carbohydrate, and 2% of an inorganic-salt mixture with a vitamin supplement by weight, supplied by Grain Silos and Flour Mills Organization, Jeddah, Saudi Arabia) and water until the onset of intervention. Prior to surgery, rats were anesthetized with ketamine [(10% ketamine hydrochloride (80 mg/kg body weight), Cayman Chemical, Michigan, USA] and xylazine [(2% xylazine hydrochloride, 10 mg/kg body weight), Sigma-Aldrich Co., St. Louis, USA]. A single longitudinal skin incision was made on the dorsal midline at the level of the kidneys and both ovaries were ligated and removed to produce an ovariectomy in all OVX group animals. A SHAM-operated group, acting as a negative control for the effect of ovariectomy on bone parameters, underwent bilateral laparotomy, during which the ovaries were exposed but remained intact. […] The lycopene-supplemented groups were given lycopene (15, 30 and 45 mg/kg body weight per day) dissolved in corn oil by daily intra-gastric administration for the experimental period of 12 weeks. The SHAM, OVX and ALN control groups were given the same volume of corn oil without lycopene treatment. […] A 12-week randomized placebo-controlled study in order to examine the protective effects of lycopene supplementation on bone mass and fragility in OVX rats was concluded. Prior to surgery, body weight and bone mineral density (BMD) were obtained for all animals. Rats were randomized using a computer-generated randomization code into one of six groups: (1) sham-operated (SHAM; n=44); (2) ovariectomized control (OVX; n=44); (3) OVX lycopene-supplemented (15 mg/kg body weight per day) (n=44); (4) OVX lycopene-supplemented (30 mg/kg body weight per day) (n=44); (5) OVX lycopene-supplemented (45 mg/kg body weight per day) (n=44) and (6) OVX alendronate-treated (ALN) [2.0 μg/kg body weight per day subcutaneously (sc)] (n=44). Alendronate is an anti-resorptive agent for the treatment of osteoporosis and was used as a positive therapy control. […] All OVX groups were pair-fed with the SHAM group throughout the study to avoid the possible effects of ovariectomy-induced over-consumption and subsequent excessive weight gain. Treatment started 1 week after the surgery: this period of rest allowed the rats to recover from the stress associated with the surgery. In addition, after surgery, rats were administered Diclofenac sodium injection (20 mg/Kg body weight) to reduce the pain associated with the surgery. Rats were weighed and examined daily. Blood and urine samples were collected at baseline, during, and at the end of treatment for measurement of various BTMs and other analytes. In vivo dual energy x-ray absorptiometry (DXA) measurements were made for the bone mineral content (BMC) and BMD of the whole body, lumbar spine (L1-L4), and the right humerus, together with body composition at 12 weeks of treatment. One day following the post-test DXA assessments (at 12 weeks, 16 rats in each group), animals were euthanized by decapitation and right and left femurs were extracted for further biomechanical and histomorphometric analyses. Blood and urine samples were collected from all experimental groups to measure biochemical analytes and BTMs at baseline and 4, 8, and 12 weeks of treatment. Peripheral Quantitative CT (pQCT) scans were made of the proximal tibia metaphysis and the diaphysis. In vivo micro-computed tomographic (μCT) scans of the proximal tibia were obtained during the treatment period to monitor changes in bone mass and microarchitecture. […]

[3] = test system: ovariectomized (OVX) rats; test: OVX rat study: ex vivo pQCT and biomechanical testing of lumbar spine and femur; type: in vivo, Wistar rats; conditions: 12 weeks
Description: as §2, with “One day following the post-test DXA assessments (at 12 weeks, 16 rats in each group), animals were euthanized by decapitation and right and left femurs were extracted for further biomechanical and histomorphometric analyses. Blood and urine samples were collected from all experimental groups to measure biochemical analytes and BTMs at baseline and 4, 8, and 12 weeks of treatment.” left out, “diaphysis.” for “diaphysis. In vivo micro-computed tomographic (μCT) scans of the proximal tibia were obtained during the treatment period to monitor changes in bone mass and microarchitecture.”

[4] = test system: ovariectomized (OVX) rats; test: OVX rat study: serum minerals, enzymes and hormones; type: in vivo, Wistar rats
Description: as §1

[5] = OVX rat study: serum and liver lycopene by HPLC; type: in vivo, Wistar rats
Description: A total of 264 Wistar female rats, ˜6 months old, were supplied by the Animal House at King Fahd Medical Research Center (KFMRC), KAU. Rats were housed in individual cages and maintained at 22° C. with a 12-h light/dark cycle. During the study period, rats were given standard rodent chow diet ad libitum (commercial rat cubes containing approximately 18% protein, 3% fat, 77% carbohydrate, and 2% of an inorganic-salt mixture with a vitamin supplement by weight, supplied by Grain Silos and Flour Mills Organization, Jeddah, Saudi Arabia) and water until the onset of intervention. Prior to surgery, rats were anesthetized with ketamine [(10% ketamine hydrochloride (80 mg/kg body weight), Cayman Chemical, Michigan, USA] and xylazine [(2% xylazine hydrochloride, 10 mg/kg body weight), Sigma-Aldrich Co., St. Louis, USA]. A single longitudinal skin incision was made on the dorsal midline at the level of the kidneys and both ovaries were ligated and removed to produce an ovariectomy in all OVX group animals. A SHAM-operated group, acting as a negative control for the effect of ovariectomy on bone parameters, underwent bilateral laparotomy, during which the ovaries were exposed but remained intact. […] The lycopene-supplemented groups were given lycopene (15, 30 and 45 mg/kg body weight per day) dissolved in corn oil by daily intra-gastric administration for the experimental period of 12 weeks. The SHAM, OVX and ALN control groups were given the same volume of corn oil without lycopene treatment. […] A 12-week randomized placebo-controlled study in order to examine the protective effects of lycopene supplementation on bone mass and fragility in OVX rats was concluded. Prior to surgery, body weight and bone mineral density (BMD) were obtained for all animals. […] Peripheral Quantitative CT (pQCT) scans were made of the proximal tibia metaphysis and the diaphysis. […]

[6] = test system: ovariectomized (OVX) rats; test: OVX rat study: dynamic bone histomorphometry of tibial metaphysis and diaphysis; type: in vivo, Wistar rats
Description: as §2

[7] = test system: ovariectomized (OVX) rats; test: OVX rat study: in vivo DXA densitometry of lumbar spine and humerus; parameters: species or system Wistar rats; conditions: 12 weeks, versus OVX control
Description: (§3) A total of 264 Wistar female rats, ˜6 months old, were supplied by the Animal House at King Fahd Medical Research Center (KFMRC), KAU. Rats were housed in individual cages and maintained at 22° C. with a 12-h light/dark cycle. During the study period, rats were given standard rodent chow diet ad libitum (commercial rat cubes containing approximately 18% protein, 3% fat, 77% carbohydrate, and 2% of an inorganic-salt mixture with a vitamin supplement by weight, supplied by Grain Silos and Flour Mills Organization, Jeddah, Saudi Arabia) and water until the onset of intervention. Prior to surgery, rats were anesthetized with ketamine [(10% ketamine hydrochloride (80 mg/kg body weight), Cayman Chemical, Michigan, USA] and xylazine [(2% xylazine hydrochloride, 10 mg/kg body weight), Sigma-Aldrich Co., St. Louis, USA]. A single longitudinal skin incision was made on the dorsal midline at the level of the kidneys and both ovaries were ligated and removed to produce an ovariectomy in all OVX group animals. A SHAM-operated group, acting as a negative control for the effect of ovariectomy on bone parameters, underwent bilateral laparotomy, during which the ovaries were exposed but remained intact. […] Peripheral Quantitative CT (pQCT) scans were made of the proximal tibia metaphysis and the diaphysis. […]

[8] = test system: ovariectomized (OVX) rats; test: OVX rat study: in vivo pQCT densitometry of tibia metaphysis; parameters: species or system Wistar rats; conditions: 12 weeks, versus OVX control, P<0.001
Description: as §3

[9] = 12 weeks, lycopene, ALN 2.0 μg/kg/day, P<0.001
[10] = lycopene 15-45 mg/kg/day, 12 weeks, range over doses

CC(C)=CCC/C(C)=C/C=C/C(C)=C/C=C/C(C)=C/C=C/C=C(C)/C=C/C=C(C)/C=C/C=C(\C)CCC=C(C)C [lycopene]
s-CTX and u-DPD levels compared to OVX control ([1]; lycopene 30 and 45 mg/kg per day, P<0.001): significantly decreased | s-OC and s-PINP levels compared with OVX control ([1]; lycopene 30 or 45 mg/kg per day, weeks 8 and 12, P<0.001): significant decreases | decrease in Tb.Sp, tibia metaphysis (μCT), compared with OVX group [2, 9]: 46.8% | increase in BV/TV, tibia metaphysis (μCT), compared with OVX group [2, 9]: 123.9% | increase in Tb.N, tibia metaphysis (μCT), compared with OVX group [2, 9]: 52.8% | increase in Tb.Th, tibia metaphysis (μCT), compared with OVX group ([2]; 12 weeks, lycopene, P<0.001): 78.4% | relative bone volume (BV/TV) of the femur diaphysis (μCT) ([2]; OVX rats, 12 weeks): nor lycopene or ALN treatment had significant effects | femoral cortical values for Ct.Th and Ct.Po (μCT) ([2]; lycopene 30 and 45 mg/kg/day, ALN, versus SHAM and OVX groups): improved | OVX-induced decrease in cortical thickness ([3]; lycopene particularly 45 mg/kg/day, alendronate 2.0 μg/kg/day): prevented the decrease | lumbar spine biomechanical / bone strength parameters ([3]; lycopene particularly 30 and 45 mg/kg/day, ALN 2.0 μg/kg/day, P<0.05): improved | effects of OVX on bone strength parameters in the femur diaphysis ([3]; lycopene, values comparable to SHAM): prevented the negative effects | serum E2 ([4]; OVX lycopene-treated groups, dose-dependent, P<0.001): significantly increased | elevated serum FSH and LH levels ([4]; OVX rats, lycopene treatment): attenuated | serum PTH values versus other groups ([4]; OVX rats, lycopene 45 mg/kg/day, ALN 2.0 μg/kg/day sc, P<0.001): significantly higher | Liver lycopene levels versus 15 mg/kg per day group ([5]; 30 and 45 mg/kg body weight per day groups): significantly higher | concentration at 12 weeks ([5]; female, Wistar, rat, serum, 45 mg/kg/day, OVX rats, at 12 weeks, 45 mg/kg body weight per day oral, read-out: Serum lycopene levels): 71.5 ± 4.65 nM | lycopene in serum and livers ([5]; rats treated with lycopene, dose-dependent fashion): detected | osteoclast surface (Oc.S/BS) and osteoclast number (N.Oc/BS) ([6]; OVX rats, lycopene, P<0.001): significant decreases | bone formation parameters (Ob.S/BS, MS/BS, BFR/BS, BFR/BV) ([6]; OVX rats, lycopene, tibial metaphysis): prevented OVX-induced increases | increase in BV/TV, tibial metaphysis (histomorphometry), compared with OVX control [6, 10]: 27.1-92.2% | increase in Tb.N, tibial metaphysis (histomorphometry), compared with OVX control [6, 10]: 9.2-72.9% | OVX-related increases in endocortical bone turnover formation (Ec.L.Pm/Ec.Pm, Ec MAR, Ec.BFR/BS) ([6]; lycopene greater than 15 mg/kg body weight per day, tibial diaphysis): completely prevented | bone dynamics on the periosteal surface ([6]; lycopene, except at 45 mg/kg body weight per day): positively affected | OVX-induced bone loss (BMC and BMD, lumbar spine and humerus, DXA) [7]: significantly prevented | OVX-induced bone loss (total and trabecular BMD, proximal tibia, pQCT) [8]: significantly prevented
